The values below come from PMC8775935, “Chebulinic Acid Suppresses Adipogenesis in 3T3-L1 Preadipocytes by Inhibiting PPP1CB Activity” (International Journal of Molecular Sciences, 2022).

The experiment addresses protein phosphatase-1 catalytic subunit beta (PPP1CB) (Homo sapiens, UniProt P62140). Nature of the experiment: DiFMUP fluorescence phosphatase assay, dose-response. Type of experiment: biochemical.

As usually defined, the IC50 is the point on the concentration scale where inhibition reaches its midpoint. A lower IC50 goes with greater potency in that assay.

Chain of protein phosphatase-1 catalytic subunit beta (PPP1CB) (P62140 1-266): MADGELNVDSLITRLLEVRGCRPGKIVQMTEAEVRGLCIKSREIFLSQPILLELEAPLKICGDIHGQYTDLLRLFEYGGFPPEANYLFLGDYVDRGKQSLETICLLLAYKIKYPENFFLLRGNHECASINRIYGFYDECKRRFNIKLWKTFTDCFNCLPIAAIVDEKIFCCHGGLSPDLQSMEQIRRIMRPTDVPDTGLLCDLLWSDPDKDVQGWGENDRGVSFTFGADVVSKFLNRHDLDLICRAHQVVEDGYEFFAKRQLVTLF

Turning to `O=C(O)C[C@@H]1C(=O)O[C@H]2[C@H](OC(=O)c3cc(O)c(O)c(O)c3)[C@@H](OC(=O)c3cc(O)c(O)c4c3[C@H]1[C@H](O)C(=O)O4)[C@H](OC(=O)c1cc(O)c(O)c(O)c1)O[C@@H]2COC(=O)c1cc(O)c(O)c(O)c1` [compound 147, chebulinic acid], inhibition was half-maximal at 0.3 µM (IC50).
